Test results published in patent US20080057531A1, “SYSTEMS, KITS, AND METHODS FOR DETECTING CARIOGENIC BACTERIA AND ASSESSING RISK OF DENTAL CARIES” (Oregon Health and Science University, priority 2006, published 2008).
Where a SMILES comes first, the peptide text is derived from it. Bridges are numbered along the chain shown (N, C = ends). [ ]: non-standard residue; d: D form. The star is where a group is joined. Ileψ(thiazoline)Cys = CC[C@H](C)[C@H](N)C1=N[C@H](C(=O)*)CS1; dOrn = NCCC[C@@H](N)C(=O)O

Key:
S. mutans in saliva = test: bacitracin selection for S. mutans in pediatric saliva samples incubated in BHI media; type: cell-based, Streptococcus mutans; details: four hours of bacitracin treatment, 7% at time 0, FIG. 5
Excerpt: FIG. 5 illustrates the bacitracin-based selection for the highly cariogenic S. mutans species in the presence of non-mutans streptococci.
This example describes a clinical study, examining the application of bacitracin selection (and sucrose growth accelerant) on oral micro-organisms found in dental plaque and saliva. This study examines up to 50 patients, with 3-4 plaque specimens and one saliva specimen per patient, and assesses the correlation between ATP content (measured by CariScreen meter and Veritas luminometer), wet weight of plaque specimens, total protein measurement, and viable bacterial numbers (total bacteria, total oral streptococci, Streptococcus mutans, and total lactobacilli as assessed with the use of plating on blood agar, mitis-salivarius agar, mitis-salivarius agar supplemented with bacitracin ([…] w/v), and Rogasa agar, respectively). […] With continued reference to FIG. 5, with four hours of bacitracin treatment the percentage of S. mutans in saliva went from 7% at time 0 to 75%. With reference to FIG. 6, a subject's saliva was added to BHI media±bacitracin (0.5 units/ml), and then incubated at 37° C. in a 5% carbon dioxide atmosphere. At times 0, 1, 2, and 4 hours samples were measured for ATP-driven bioluminescence and plated onto blood agar plates to measure total bacteria numbers. […]

[1] = test system: non-cariogenic streptococci, such as S. sanguis; test: bacitracin selection in suspended solution format, growth measured by ATP luminescence; type: cell-based, Streptococcus sanguis; details: 0.5-1.0 U/ml bacitracin in BHI medium, FIG. 3
Excerpt: (§1) FIG. 3 illustrates the relationship between bacitracin concentration and effect on growth of several oral streptococci species as measured by ATP luminescence.
(§2) With reference to FIG. 1, the linear portion of the curves in each graph illustrates a range of measurements that can be used to accurately correlate ATP concentration and relative light units. FIG. 2 illustrates that the relationship of ATP content and viable cell number is linear during exponential phase of growth. However, ATP content becomes diminished during transition from exponential phase to […] of growth. […] Cultures tested include Streptococcus mutans ATCC 700610, Streptococcus mutans A TCC 25175, Streptococcus sanguis and Streptococcus sobrinus. Overnight cultures were prepared using BHI medium and then inoculum was transferred to fresh BHI medium in the presence (0.5 U/ml-10 U/ml) or absence of bacitracin. […] Thus, the presence of sucrose may represent a further improvement of the current CariScreen device, by 1) extending the effectiveness of bacitracin selection and by 2) increasing the likelihood or allowing all oral microorganisms to remain in an exponential phase of growth, which based on FIG. 2, represents an accurate determinant of bacterial number as measured by ATP.

S. sobrinus = test: as above; type: cell-based, Streptococcus sobrinus; details: 0.5-1.0 U/ml bacitracin in BHI medium, FIG. 3
Excerpt: as §1, §2

cariogenic S. mutans = test: as above; type: cell-based, Streptococcus mutans; details: 0.5-1.0 U/ml bacitracin in BHI medium, FIG. 3
Excerpt: as §1, §2

[2] = test system: oral streptococci, including cariogenic S. mutans and non-cariogenic S. salivarius and S. sanguis; test: sucrose as accelerant of growth of oral streptococci, suspended bacteria; type: cell-based; details: varying sucrose concentrations, FIG. 4
Excerpt: (§3) FIG. 4 illustrates the effect of sucrose as a potential accelerant of growth of four different oral streptococci, increase of four different streptococci strains, including measurement of adherent bacteria, in response to varying sucrose concentrations.
as §2

S. mutans = test: sucrose effect on adherence of bacteria in a biofilm on the culture vessel; type: cell-based, Streptococcus mutans; details: sucrose especially at 0.5-1%, FIG. 4
Excerpt: as §3, §2

CC[C@H](C)[C@H](N)C1=N[C@H](C(=O)N[C@@H](CC(C)C)C(=O)N[C@H](CCC(=O)O)C(=O)N[C@H](C(=O)N[C@H]2CCCCNC(=O)[C@H](CC(N)=O)NC(=O)[C@@H](CC(=O)O)NC(=O)[C@H](Cc3cnc[nH]3)NC(=O)[C@@H](Cc3ccccc3)NC(=O)[C@H]([C@@H](C)CC)NC(=O)[C@@H](CCCN)NC2=O)[C@@H](C)CC)CS1 [bacitracin] ({Ileψ(thiazoline)Cys}-L[dE]IK[dOrn]I[dF]H[dD]N; lactam 4-C) was tested, and the “percentage of S. mutans in saliva” value (S. mutans in saliva) was 75%, the effect on growth [1] was “greatly inhibit” and the effect on growth (S. sobrinus) was “allows considerable break-through of growth”. For the same compound, the effect on growth (cariogenic S. mutans) was “allows considerable break-through of growth”.
In the case of OC[C@H]1O[C@@](CO)(O[C@H]2O[C@H](CO)[C@@H](O)[C@H](O)[C@H]2O)[C@@H](O)[C@@H]1O [sucrose], the “effect on growth phase and yield” value [2] is reported as “extend the exponential phase of growth and promote increased yields at saturation” and the “effect on adherence in a biofilm coating the plastic surface of the culture vessel” value (S. mutans) is reported as “promote the increased adherance”.
